Source: patent publication US20090042983A1, “Use of L-carnitine for the treatment of cardiovascular diseases” (Sigma-Tau Industrie Farmaceutiche Riunite S.p.A., priority 2003, published 2009)

Columns and labels:
[1] = system: patients with acute myocardial infarction; experiment: Multicentre double-blind placebo-controlled randomised clinical trial of L-carnitine on mortality (Example 1); format: in vivo, human
Method: A clinical trial was conducted in order to evaluate the effect of the administration of L-carnitine on the incidence of mortality and heart failure in the short and long term in patients with acute myocardial infarction. The acute myocardial infarction has not localized within a specific region of the organ but it could be located anywhere in the heart. The trial design was that of a multicentre, parallel-group, double-blind, placebo-controlled, randomised trial.
A total of 2,296 male and female patients aged below 80 years were recruited. The study compound, L-carnitine, was administered at a dose of 9 g/day i.v. for the first 5 days and 4 g/day by mouth from day 6 to day 180.
Concomitant therapies were given according to the procedures adopted in local clinical practice.
The efficacy endpoints of the trial consisted in the reduction of mortality and heart failure.
• Typical chest pain lasting>30 minutes, not resolved by the oral or intravenous administration of nitrates; • ECG with ST segment deviation≧0.2 mV in D, and aVL and/or in two or more contiguous precordial leads; • Time interval elapsing from onset of symptoms to trial randomisation<12 hours; • Age<80 years; • Written informed consent.
• Pregnancy or breast-feeding; • Haemodynamically significant valvulopathy; • Hypertrophic or dilated cardiomyopathy; • Congenital heart disease; • Clinically severe liver or kidney disease; • Alcohol abuse; • Other diseases associated with a poor life expectancy; • Conditions making poor compliance with treatment and/or periodic visits likely; • Inclusion in another trial.

[2] = system: patients affected by anterior acute myocardial infarction; settings: cited from earlier work
[3] = system: acute myocardial infarction; settings: 40 mg/kg/day (2.8 g/day); cited from earlier work
[4] = system: patients with acute myocardial infarction; settings: 3 grams every 8 hours (9 grams a day) intravenous for 48 hours; symptoms within 8 hours; 351 patients; cited from earlier work
cardiac ischaemia = settings: dogs, cardiac ischaemia model; cited from earlier work
perfused heart = settings: cited from earlier work

Structure (SMILES) | NUMBER OF DEATHS AT: 1 mos ([1]; 9 g/day i.v. first 5 days, 4 g/day by mouth day 6 to 180, at 1 mos) | NUMBER OF DEATHS AT: 2 mos ([1]; 9 g/day i.v. first 5 days, 4 g/day by mouth day 6 to 180, at 2 mos) | NUMBER OF DEATHS AT: 6 mos ([1]; 9 g/day i.v. first 5 days, 4 g/day by mouth day 6 to 180, at 6 mos) | NUMBER OF DEATHS AT: 12 mos ([1]; 9 g/day i.v. first 5 days, 4 g/day by mouth day 6 to 180, at 12 mos) | RR (Relative Risk) of death at 1 mos ([1]; L-carnitine vs placebo, at 1 mos) | RR (Relative Risk) of death at 2 mos ([1]; L-carnitine vs placebo, at 2 mos) | RR (Relative Risk) of death at 6 mos ([1]; L-carnitine vs placebo, at 6 mos) | RR (Relative Risk) of death at 12 mos ([1]; L-carnitine vs placebo, at 12 mos) | reduction in deaths at the other observation times ([1]; vs placebo, 3 and 7 days, 1, 2, 6, 12 mos) | reduction in deaths after 5 days' treatment ([1]; vs placebo, after 5 days' treatment (P<0.05)) | left ventricular dilation in the first year after infarction ([2]; anterior acute myocardial infarction) | deaths during the hospitalisation period ([2]; treated group, L-carnitine within 24 hours from onset of chest pain, 14 in control group, 472 patients in total) | difference between patients treated within 4 hours and more than 4 hours after onset of infarct symptoms [3] | mortality vs control group at 7 days after the start of treatment [4] | cardiac lipid metabolism (cardiac ischaemia) | lactate levels (perfused heart) | postischemic cardiac contraction amplitude (perfused heart) | release of LDH (perfused heart) | reserve of high-energy phosphate (perfused heart) | coronary flow (perfused heart; postischemic)
C[N+](C)(C)C[C@H](O)CC(=O)[O-] [L-carnitine] | 45 | 53 | 64 | 67 | 0.78 | 0.81 | 0.86 | 0.89 | significant reductions | statistically significant reduction in deaths | significant attenuation of left ventricular dilation | 11 | no significant difference | no significant difference | active in improving cardiac lipid metabolism |  |  |  |  | 
C[N+](C)(C)C[C@H](O)CC(=O)[O-].O=C(O)/C=C/C(=O)O [L-carnitine fumarate] |  |  |  |  |  |  |  |  |  |  |  |  |  |  |  | lower lactate levels | greater | reduced release of LDH | higher reserve of high-energy phosphate | greater
